Test systems include Candida albicans LM106; Aspergillus flavus LM26; Aspergillus flavus LM247; Candida albicans LM108; Salmonella typhimurium; Pseudomonas putida; Pseudomonas aeruginosa; Streptococcus mutans; Saccharomyces cerevisiae; Staphylococcus aureus 1; Cryptococcus neoformans; Candida albicans; Serratia marcescens; Bacillus subtilis; Escherichia coli; Streptococcus pneumoniae; Bacillus subtilis SMY; Pseudomonas aeruginosa 1; Aspergillus fumigatus; Sporothrix schenckii; Staphylococcus aureus MR.

What all share (assay): ≥ marks a high value that may be exact or a test limit, other limits are often not marked, values filed in µg/mL are converted to µM
Test [1] concerns Trichophyton rubrum LM640.
The subject of test [2] is Candida tropicalis ATCC 13803.
Test [3] relates to Candida albicans ATCC 90028.
The subject of test [4] is Staphylococcus aureus ATCC 25923.
Test [5] concerns Candida parapsilosis ATCC 22019.
Test [6] has as its system Escherichia coli O157:H7 ATCC 43895.
In test [7] the test system is Pseudomonas aeruginosa ATCC 27853.
Test [8] relates to Trichosporon beigelii KCTC 7707.
Test [9] concerns Trichophyton rubrum KCTC 6345.
Test [10] has as its system Enterococcus faecium ATCC 19434.
The subject of test [11] is Salmonella typhimurium ATCC 19430.
Test [12] relates to Escherichia coli ATCC 23716.
Test [13] concerns Staphylococcus aureus ATCC 9144.
The test system of test [14] is Trichophyton mentagrophytes.
In test [15] the test system is Pseudomonas aeruginosa ATCC BAA-427.
Test [16] relates to Escherichia coli ATCC 10536.
The test system of test [17] is Bacillus subtilis ATCC 6633.
Test [18] concerns Klebsiella pneumoniae ATCC 27736.
Test [19] deals with Staphylococcus epidermidis NRRL B-4268.
Test [20] relates to Pseudomonas aeruginosa ATCC 47085.
Test [21] has as its system Fusarium graminearum PH-1.
Test [22] deals with Candida tropicalis PCM 2681.
Test [23] deals with Pseudomonas aeruginosa ATCC 9027.
Test [24] deals with Candida albicans ATCC 10231.
Test [25] has as its system Escherichia coli ATCC 25922.
For test [26], the system named is Klebsiella pneumoniae ATCC 200603.
Test [27] has as its system Staphylococcus epidermidis ATCC 14490.

≈ marks a conversion by molar mass, not a printed value.

`CC[C@H](C)[C@H](NC(=O)CNC(=O)[C@@H](NC(=O)[C@H](Cc1ccccc1)NC(=O)[C@H](CC(=O)O)NC(=O)[C@H](CCSC)NC(=O)[C@H](CC(=O)O)NC(=O)[C@H](C)N)[C@@H](C)O)C(=O)N[C@@H](C)C(=O)N[C@@H](CCC(=O)O)C(=O)N[C@@H](CO)C(=O)N[C@H](C(=O)N[C@H](C(=O)N[C@@H](CCCCN)C(=O)N[C@@H](CCCCN)C(=O)N[C@H](C(=O)N[C@@H](CCCCN)C(=O)N[C@@H](CCC(=O)O)C(=O)N[C@H](C(=O)N[C@@H](CC(N)=O)C(=O)N[C@@H](C)C(=O)N[C@@H](CCCCN)C(=O)N1CCC[C@H]1C(=O)N1CCC[C@H]1C(=O)N[C@@H](C)C(=O)O)[C@@H](C)O)[C@@H](C)CC)[C@@H](C)CC)[C@@H](C)CC` [ADMDFTGIAESIIKKIKETNAKPPA]: the minimal inhibitory concentration (MIC) is no less than 47.6 µM in the test with Candida albicans LM106; no less than 381 µM in [1]; no less than 47.6 µM in [2]; no less than 47.6 µM with Aspergillus flavus LM26; no less than 47.6 µM against Aspergillus flavus LM247; no less than 381 µM against Candida albicans LM108.

Consider `CC(C)C[C@H](NC(=O)CNC(=O)[C@H](C)N)C(=O)N[C@@H](CCC(N)=O)C(=O)N[C@@H](Cc1ccccc1)C(=O)N1CCC[C@H]1C(=O)N[C@H](C(=O)NCC(=O)N[C@@H](CCCN=C(N)N)C(=O)N[C@H](C(=O)N[C@@H](Cc1cnc[nH]1)C(=O)N[C@@H](CCCN=C(N)N)C(=O)N[C@@H](CC(C)C)C(=O)N[C@@H](CC(C)C)C(=O)N[C@@H](CCCN=C(N)N)C(=O)N[C@@H](CCCCN)C(=O)O)C(C)C)C(C)C` [AGLQFPVGRVHRLLRK], for which the minimum inhibitory concentration (MIC) in test [3] is 12.5 µM (≈ 23.1 µg/mL); against Salmonella typhimurium, 1.08 µM (≈ 2 µg/mL); in [4], 25 µM (≈ 46.2 µg/mL); in the test with Pseudomonas putida, 2.17 µM (≈ 4 µg/mL); in the test with Pseudomonas aeruginosa, 12.5 µM (≈ 23.1 µg/mL); in test [5], 25 µM (≈ 46.2 µg/mL). In addition, the MIC against Streptococcus mutans turned out to be 2.17 µM (≈ 4 µg/mL); in the test with Saccharomyces cerevisiae, 4.33 µM (≈ 8 µg/mL); against Staphylococcus aureus 1, 12.5 µM (≈ 23.1 µg/mL); in test [6], 6.3 µM (≈ 11.6 µg/mL); in [7], 12.5 µM (≈ 23.1 µg/mL); with Cryptococcus neoformans it was 4.33 µM (≈ 8 µg/mL). In addition, the minimum inhibitory concentration (MIC) in the test with Candida albicans amounted to 4.33 µM (≈ 8 µg/mL); in the test on Serratia marcescens it was 1.08 µM (≈ 2 µg/mL); in [8] it was 12.5 µM (≈ 23.1 µg/mL); against Bacillus subtilis it was 2.17 µM (≈ 4 µg/mL); in test [9], 12.5 µM (≈ 23.1 µg/mL); with Escherichia coli, 2.17 µM (≈ 4 µg/mL). Further, the minimal inhibitory concentration (MIC) is 2.17 µM (≈ 4 µg/mL) against Streptococcus pneumoniae; 25 µM (≈ 46.2 µg/mL) in test [10]; 6.3 µM (≈ 11.6 µg/mL) in test [11]; no less than 139 µM in test [12]; no less than 139 µM in the test on Bacillus subtilis SMY; 6.3 µM (≈ 11.6 µg/mL) in the test on Pseudomonas aeruginosa 1.

Turning to `CC(C)C[C@H](NC(=O)[C@H](CCCCN)NC(=O)[C@H](CC(C)C)NC(=O)[C@H](Cc1ccccc1)NC(=O)[C@H](CCCN=C(N)N)NC(=O)[C@H](CCCN=C(N)N)NC(=O)[C@H](Cc1ccccc1)NC(=O)[C@H](Cc1c[nH]c2ccccc12)NC(=O)[C@H](CCCCN)NC(=O)[C@H](CCCN=C(N)N)NC(=O)[C@H](Cc1ccccc1)NC(=O)[C@H](CCCN=C(N)N)NC(=O)[C@H](CCCN=C(N)N)NC(=O)[C@@H](N)Cc1ccccc1)C(=O)N[C@@H](Cc1ccccc1)C(N)=O` [FRRFRKWFRRFLKLF], the MIC in the test with Aspergillus fumigatus came to 3 µM (≈ 6.61 µg/mL); in test [5], 3 µM (≈ 6.61 µg/mL); with Sporothrix schenckii, 3 µM (≈ 6.61 µg/mL); in the test on Cryptococcus neoformans it was 6.1 µM (≈ 13.4 µg/mL); against Candida albicans it was 3.1 µM (≈ 6.83 µg/mL); in test [13], 6.25 µM (≈ 13.8 µg/mL). In addition, the MIC in test [14] was determined as 3 µM (≈ 6.61 µg/mL); in [15] it was 25 µM (≈ 55.1 µg/mL); in test [16], 6 µM (≈ 13.2 µg/mL); in [17], 11.3 µM (≈ 24.9 µg/mL); in [18] it was 6 µM (≈ 13.2 µg/mL); in the test with Staphylococcus aureus MR it was 25 µM (≈ 55.1 µg/mL). This molecule also yielded a minimal inhibitory concentration (MIC) in test [19] of 13.2 µM (≈ 29.1 µg/mL).

Take `CC(C)C[C@H](NC(=O)CN)C(=O)N[C@@H](CC(C)C)C(=O)N[C@@H](CCCN=C(N)N)C(=O)N[C@@H](CCCCN)C(=O)N[C@@H](Cc1c[nH]c2ccccc12)C(=O)NCC(=O)N[C@@H](CCCCN)C(=O)N[C@@H](CCCCN)C(=O)N[C@@H](Cc1c[nH]c2ccccc12)C(=O)N[C@@H](CCCCN)C(=O)N[C@@H](CCC(=O)O)C(=O)N[C@@H](Cc1ccccc1)C(=O)N[C@@H](CC(C)C)C(=O)N[C@@H](CCCN=C(N)N)C(=O)N[C@@H](CCCN=C(N)N)C(=O)N[C@H](C(=O)N[C@@H](Cc1c[nH]c2ccccc12)C(=O)N[C@@H](CCCCN)C(N)=O)C(C)C` [GLLRKWGKKWKEFLRRVWK]: the minimal inhibitory concentration (MIC) in test [4] and in test [20] was 12.7 µM (≈ 32 µg/mL) throughout.

As to `C[C@@H]1NC(=O)[C@@H](NC(=O)[C@@H]2CCCN2C(=O)CN)CSSC[C@@H](C(=O)O)NC(=O)[C@H](CC(N)=O)NC(=O)[C@H](Cc2cnc[nH]2)NC(=O)[C@H](CC(=O)O)NC(=O)[C@H](CO)NC1=O` [GPCASDHNC], the minimal inhibitory concentration (MIC) in test [21] is no less than 48 µM.

As for `NC(=O)CC[C@H](NC(=O)[C@H](CCC(N)=O)NC(=O)[C@H](CCC(=O)O)NC(=O)[C@H](Cc1ccccc1)NC(=O)[C@H](CCC(=O)O)NC(=O)[C@H](Cc1c[nH]c2ccccc12)NC(=O)[C@H](CCC(=O)O)NC(=O)[C@H](Cc1ccccc1)NC(=O)[C@H](CCCN=C(N)N)NC(=O)[C@H](CCC(N)=O)NC(=O)[C@@H](N)CCC(N)=O)C(N)=O` [QQRFEWEFEQQ], the minimal inhibitory concentration (MIC) in test [22] is no less than 329 µM; in [4], greater than 329 µM; in [23] it was greater than 329 µM; in [24] it was greater than 329 µM; in [25] it was greater than 329 µM; in test [26], no less than 329 µM. Further, the MIC in [27] and in test [17] was no less than 329 µM in each case.

Broadly, the MIC is the lowest concentration that inhibits growth of the organism.
